Experimental data from patent EP0212822A1, “A composition containing a plant growth regulator and an alkanol and a method of using the same” (ICI AMERICAS INC., priority 1985, dated 1987).

Key:
Siberian Elm = test: Trunk injection of trees (Brown method), Retardation and Uniformity Ratings; assay type: in vivo, Ulmus pumila (Siberian Elm); design: key to Uniformity Rating (U): 0 = no effect from PGR; 1 = poor; 2 = fair; 3 = acceptable; 4 = very good; 5 = excellent; settings: 10 g (II) in 1 liter methanol
Protocol: A method of tree injection and apparatus employed herein is discussed in G. K. Brown, "Prototype Equipment for Commercial Pressure - Injection of Aqueous Growth Regulators Into Trees," Journal of Arboriculture, Vol. 4, pp. 7-13, 1978, and in the references noted therein. Under the Brown method the number of injection holes and total injection volume (TIV) of PGR solution is determined by measuring the diameter of the tree at DBH and using the following formulae: […]
(§1) The examples which follow exemplify the improvements obtained by this invention. However, these examples are not intended to limit the scope of the invention. In Examples 1-41, the subject trees were injected at a distance approximately one foot from the soil line by drilling 7/32 inch diameter holes to a 2 inch depth at a 30-45° angle tangential to the trunk with a pressure injector (150 psi) purchased from the Asplundh Tree Expert Co., Company No. 346-3502. The results are expressed in terms of Retardation and Uniformity Ratings. The Retardation rating scale is as follows: • 0 = no retardataion • 1 = 1-20% retardation • 2 = 21-40% retardation • 3 = 41-60% retardation • 4 = 61-80% retardation • 5 = 81-100% retardation
(§2) The Uniformity Rating is a measure of the consistency of response to the treatment between different branches of the tree. The Uniformity scale employed is as follows: • 0 = no effect from PGR • 1 = poor • 2 = fair • 3 = acceptable • 4 = very good • 5 = excellent
10 (0.034 moles) grams of (2RS,3RS)-1-(4-chlorophenyl)-4,4-dimethyl-2-1,2,4-triazol-1-yl)pen- tan-3-ol (II) of the formula [drawing 41] was dissolved in 1 liter of methanol at room temperature and was stirred until the solution was clear, approximately 20 minutes.
In these examples, the number of injection holes, volume per injection hole and total injection volume in ml was determined from the DBH in accordance' with the Brown method.

Water Oak [1] = test: Trunk injection, holes at 4 inch intervals, Retardation and Uniformity Ratings; assay type: in vivo, Quercus nigra (Water Oak); design: key to Uniformity Rating (U): 0 = no effect from PGR; 1 = poor; 2 = fair; 3 = acceptable; 4 = very good; 5 = excellent; settings: 38 ml/hole
Protocol: as §1, §2
10 (0.034 moles), 20 (0.068 moles) and 40 grams (0.136 moles) of (2RS, 3RS)-1-(4-chlorophenyl)-4,4-dimethyl-2-l,2,4-triazol-l-yl)pentan-3-ol (PGR) were dissolved in 1,1 and 1 liter, respectively, of methanol at room temperature and was stirred until the solution was clear, approximately 20 to 60 minutes. In these examples, the injection holes were placed at approximate 4 inch intervals.

Water Oak [2] = test: Trunk injection, holes at 8 inch intervals, Retardation and Uniformity Ratings; assay type: in vivo, Quercus nigra (Water Oak); design: key to Uniformity Rating (U): 0 = no effect from PGR; 1 = poor; 2 = fair; 3 = acceptable; 4 = very good; 5 = excellent; key to Retardation Rating (R): 0 = no retardataion; 1 = 1-20% retardation; 2 = 21-40% retardation; 3 = 41-60% retardation; 4 = 61-80% retardation; 5 = 81-100% retardation; settings: 75 ml/hole
Protocol: as §1, §2
10 (0.034 moles), 20 (0.068 moles) and 40 grams (0.136 moles) of (2RS, 3RS)-1-(4-chlorophenyl)-4,4-dimethyl-2-1,2,4-triazol-1-yl)pentan-3-ol (PGR) was dissolved in 1,1 and 1 liter, respectively, of methanol at room temperature and was stirred until the solution was clear, approximately 20 to 60 minutes. In these examples, the injection holes were placed at approximate 8 inch intervals.

[3] = week 14 after treatment, listed as 1, 12 in. DBH tree, 229 ml per tree
[4] = week 14 after treatment, listed as 2, 17 in. DBH tree, 432 ml per tree
[5] = week 14 after treatment, listed as 3, 13 in. DBH tree, 268 ml per tree
[6] = week 14 after treatment, listed as 4, 11 in. DBH tree, 192 ml per tree
[7] = week 14 after treatment, listed as 5, 15 in. DBH tree, 119 ml per tree
[8] = week 14 after treatment, listed as 6, 11 in. DBH tree, 192 ml per tree
[9] = week 67 after treatment, listed as 1, 12 in. DBH tree, 229 ml per tree
[10] = week 67 after treatment, listed as 2, 17 in. DBH tree, 432 ml per tree
[11] = week 67 after treatment, listed as 3, 13 in. DBH tree, 268 ml per tree
[12] = week 67 after treatment, listed as 4, 11 in. DBH tree, 192 ml per tree
[13] = week 67 after treatment, listed as 5, 15 in. DBH tree, 119 ml per tree
[14] = week 67 after treatment, listed as 6, 11 in. DBH tree, 192 ml per tree
[15] = week 24, 10 g PGR in 1 liter methanol
[16] = week 56, 10 g PGR in 1 liter methanol
[17] = week 24, 10 g PGR in 1 liter methanol, listed as 7, 10 injection holes, 750 ml per tree
[18] = week 24, 10 g PGR in 1 liter methanol, listed as 8, 10 injection holes, 750 ml per tree
[19] = week 24, 10 g PGR in 1 liter methanol, listed as 9, 6 injection holes, 450 ml per tree
[20] = week 24, 10 g PGR in 1 liter methanol, listed as 10, 6 injection holes, 450 ml per tree
[21] = week 24, 20 g PGR in 1 liter methanol, listed as 11
[22] = week 24, 20 g PGR in 1 liter methanol, listed as 12
[23] = week 24, 20 g PGR in 1 liter methanol, listed as 13
[24] = week 24, 40 g PGR in 1 liter methanol, listed as 15, 7 injection holes, 525 ml per tree
[25] = week 24, 40 g PGR in 1 liter methanol, listed as 16, 10 injection holes, 750 ml per tree
[26] = week 24, 40 g PGR in 1 liter methanol, listed as 17, 6 injection holes, 450 ml per tree
[27] = week 56, 10 g PGR in 1 liter methanol, listed as 7, 10 injection holes, 750 ml per tree
[28] = week 56, 10 g PGR in 1 liter methanol, listed as 8, 10 injection holes, 750 ml per tree
[29] = week 56, 10 g PGR in 1 liter methanol, listed as 9, 6 injection holes, 450 ml per tree
[30] = week 56, 10 g PGR in 1 liter methanol, listed as 10, 6 injection holes, 450 ml per tree
[31] = week 56, 20 g PGR in 1 liter methanol, listed as 11
[32] = week 56, 20 g PGR in 1 liter methanol, listed as 12
[33] = week 56, 20 g PGR in 1 liter methanol, listed as 13
[34] = week 56, 40 g PGR in 1 liter methanol, listed as 15, 7 injection holes, 525 ml per tree
[35] = week 56, 40 g PGR in 1 liter methanol, listed as 16, 10 injection holes, 750 ml per tree
[36] = week 56, 40 g PGR in 1 liter methanol, listed as 17, 6 injection holes, 450 ml per tree

## CC(C)(C)[C@@H](O)[C@@H](Cc1ccc(Cl)cc1)n1cncn1 (racemic) [Formula (II), (2RS,3RS)-1-(4-chlorophenyl-4,4-dimethyl-2-1,2,4-triazol-1-yl)pentan-3-ol]
Siberian Elm; [3]
  Retardation Rating (R): 3 (3 = 41-60% retardation)
  Uniformity Rating (U): 4
Siberian Elm; [4]
  Retardation Rating (R): 3 (3 = 41-60% retardation)
  Uniformity Rating (U): 3
Siberian Elm; [5]
  Retardation Rating (R): 4 (4 = 61-80% retardation)
  Uniformity Rating (U): 4
Siberian Elm; [6]
  Retardation Rating (R): 4 (4 = 61-80% retardation)
  Uniformity Rating (U): 4
Siberian Elm; [7]
  Retardation Rating (R): 3 (3 = 41-60% retardation)
  Uniformity Rating (U): 5
Siberian Elm; [8]
  Retardation Rating (R): 3 (3 = 41-60% retardation)
  Uniformity Rating (U): 4
Siberian Elm; [9]
  Retardation Rating (R): 5 (5 = 81-100% retardation)
  Uniformity Rating (U): 5
Siberian Elm; [10]
  Retardation Rating (R): 4 (4 = 61-80% retardation)
  Uniformity Rating (U): 3
Siberian Elm; [11]
  Retardation Rating (R): 4 (4 = 61-80% retardation)
  Uniformity Rating (U): 4
Siberian Elm; [12]
  Retardation Rating (R): 5 (5 = 81-100% retardation)
  Uniformity Rating (U): 5
Siberian Elm; [13]
  Retardation Rating (R): 5 (5 = 81-100% retardation)
  Uniformity Rating (U): 5
Siberian Elm; [14]
  Retardation Rating (R): 5 (5 = 81-100% retardation)
  Uniformity Rating (U): 5
Water Oak [1]; [15]
  Retardation Rating (R): 5 (5 = 81-100% retardation)
  Uniformity Rating (U): 5
Water Oak [1]; [16]
  Retardation Rating (R): 5 (5 = 81-100% retardation)
  Uniformity Rating (U): 5
Water Oak [2]; [17]
  Retardation Rating (R): 2 (2 = 21-40% retardation)
  Uniformity Rating (U): 3
Water Oak [2]; [18]
  Retardation Rating (R): 3 (3 = 41-60% retardation)
  Uniformity Rating (U): 3
Water Oak [2]; [19]
  Retardation Rating (R): 3 (3 = 41-60% retardation)
  Uniformity Rating (U): 3
Water Oak [2]; [20]
  Retardation Rating (R): 5 (5 = 81-100% retardation)
  Uniformity Rating (U): 5
Water Oak [2]; [21]
  Retardation Rating (R): 2 (2 = 21-40% retardation)
  Uniformity Rating (U): 3
Water Oak [2]; [22]
  Retardation Rating (R): 5 (5 = 81-100% retardation)
  Uniformity Rating (U): 5
Water Oak [2]; [23]
  Retardation Rating (R): 4 (4 = 61-80% retardation)
  Uniformity Rating (U): 4
Water Oak [2]; [24]
  Retardation Rating (R): 1 (1 = 1-20% retardation)
  Uniformity Rating (U): 1
Water Oak [2]; [25]
  Retardation Rating (R): 0
  Uniformity Rating (U): 0
Water Oak [2]; [26]
  Retardation Rating (R): 3 (3 = 41-60% retardation)
  Uniformity Rating (U): 3
Water Oak [2]; [27]
  Retardation Rating (R): 3 (3 = 41-60% retardation)
  Uniformity Rating (U): 3
Water Oak [2]; [28]
  Retardation Rating (R): 3 (3 = 41-60% retardation)
  Uniformity Rating (U): 3
Water Oak [2]; [29]
  Retardation Rating (R): 5 (5 = 81-100% retardation)
  Uniformity Rating (U): 4
Water Oak [2]; [30]
  Retardation Rating (R): 5 (5 = 81-100% retardation)
  Uniformity Rating (U): 5
Water Oak [2]; [31]
  Retardation Rating (R): 4 (4 = 61-80% retardation)
  Uniformity Rating (U): 5
Water Oak [2]; [32]
  Retardation Rating (R): 5 (5 = 81-100% retardation)
  Uniformity Rating (U): 4
Water Oak [2]; [33]
  Retardation Rating (R): 4 (4 = 61-80% retardation)
  Uniformity Rating (U): 4
Water Oak [2]; [34]
  Retardation Rating (R): 4 (4 = 61-80% retardation)
  Uniformity Rating (U): 4
Water Oak [2]; [35]
  Retardation Rating (R): 3 (3 = 41-60% retardation)
  Uniformity Rating (U): 3
Water Oak [2]; [36]
  Retardation Rating (R): 3 (3 = 41-60% retardation)
  Uniformity Rating (U): 3
